Source: PubChem BioAssay (NCI)
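Compound exposure: 48 hours, 5 concentrations, 96-well plates. Here, GI50 denotes the concentration required for 50% inhibition of growth. TGI: concentration producing complete growth inhibition.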

Assays:
Assay in all cases: NCI tumour cell line growth inhibition, 48 h
M14 melanoma = tested on: M14 melanoma
UACC-257 melanoma = tested on: UACC-257 melanoma
NCI-H226 lung = tested on: NCI-H226 lung
786-0 renal = tested on: 786-0 renal
PC-3 prostate = tested on: PC-3 prostate
CCRF-CEM leukemia = tested on: CCRF-CEM leukemia
NCI-H522 lung = tested on: NCI-H522 lung
SF-268 CNS = tested on: SF-268 CNS
OVCAR-4 ovarian = tested on: OVCAR-4 ovarian
KM12 colon = tested on: KM12 colon

SMILES | TGI (M14 melanoma) | TGI (UACC-257 melanoma) | TGI (NCI-H226 lung) | TGI (786-0 renal) | TGI (PC-3 prostate) | TGI (CCRF-CEM leukemia) | TGI (NCI-H522 lung) | TGI (SF-268 CNS) | TGI (OVCAR-4 ovarian) | TGI (KM12 colon) | GI50 (M14 melanoma) | GI50 (UACC-257 melanoma) | GI50 (NCI-H226 lung) | GI50 (786-0 renal) | GI50 (PC-3 prostate) | GI50 (NCI-H522 lung) | GI50 (SF-268 CNS) | GI50 (OVCAR-4 ovarian) | GI50 (KM12 colon) | GI50 (CCRF-CEM leukemia)
C[N+](C)([O-])CCCNc1c2ccccc2nc2cccc([N+](=O)[O-])c12 | 0.772 µM | 2.25 µM | 1.39 µM | 0.872 µM | 1.26 µM | 1.96 µM | 0.67 µM | 8.14 µM | 3.16 µM | 4.36 µM | – | – | – | – | – | – | – | – | – | –
CC(=N\O)/C(C)=N/O.CC(=N\O)/C(C)=N/O.CC(=N\O)/C(C)=N/O.CC(=N\O)/C(C)=N/O.[Cu].[Cu] | 34.7 µM | 34.5 µM | 39.2 µM | 36.8 µM | 30.3 µM | – | 34.1 µM | 34.6 µM | 35.9 µM | 36.4 µM | 18.9 µM | 20.2 µM | 23.5 µM | 19.8 µM | 16.7 µM | 18.2 µM | 19.8 µM | 20.4 µM | 20.6 µM | –
CNC(=O)c1c(NC(=O)c2cccc(C(F)(F)F)c2)sc2c1CCC(=O)C2 | 4 µM | 7.3 µM | 5.71 µM | > 36.8 µM | 1.19 µM | 1.49 µM | 0.549 µM | > 100 µM | 1.44 µM | 1.96 µM | 0.417 µM | 1.9 µM | 1.61 µM | 0.447 µM | 0.139 µM | 0.075 µM | 0.486 µM | 0.389 µM | 0.423 µM | 0.113 µM
Cc1[nH]c(C(=O)Nc2ccc(C(=O)N3CCNCC3)cc2OC(C)C)c(Cl)c1Cl | 3.57 µM | 3.52 µM | 5.79 µM | 3.18 µM | 5.44 µM | 6.94 µM | 3.42 µM | 3.81 µM | 11.8 µM | 3.46 µM | 1.94 µM | 1.79 µM | 2.5 µM | 1.63 µM | 2.02 µM | 1.72 µM | 1.85 µM | 3.57 µM | 1.84 µM | 2.57 µM
COc1ccc(-c2nsc3c2NC(=O)CC3c2ccc3c(c2)OCO3)cc1 (stereo not drawn) | > 100 µM | > 100 µM | > 100 µM | > 100 µM | > 100 µM | 8.49 µM | 3.57 µM | > 100 µM | > 100 µM | > 100 µM | 0.715 µM | 10.8 µM | 7.28 µM | 3.24 µM | 2.01 µM | 0.464 µM | 6.44 µM | 6.03 µM | 0.645 µM | 1.09 µM
COc1ccc(Nc2ccnc(NCCNc3ccnc4cc(Cl)ccc34)n2)cc1 | 3.41 µM | 4.25 µM | 21.1 µM | 4.33 µM | 16 µM | 8.23 µM | 7.8 µM | 15.6 µM | 13.8 µM | 15.2 µM | 1.46 µM | 1.97 µM | 7.29 µM | 1.87 µM | 1.85 µM | 2.38 µM | 3.65 µM | 1.45 µM | 3.72 µM | 1.65 µM
O=c1[nH]cnc2c1nnn2C1OC(CO)C(O)C1O (stereo not drawn) | > 56.2 µM | > 100 µM | > 100 µM | > 100 µM | > 100 µM | > 28 µM | 14 µM | > 100 µM | 37.6 µM | > 100 µM | 1.84 µM | 12.3 µM | 4.88 µM | 2.58 µM | 2.43 µM | 1.48 µM | 6.81 µM | 0.416 µM | 3.89 µM | 0.551 µM
CCN(CC)CCOc1ccc(Nc2ncc3cc(-c4c(Cl)cccc4Cl)c(=O)n(CCOC)c3n2)cc1 | 1.5 µM | 4.58 µM | 7.89 µM | 5.28 µM | 18.6 µM | 18.1 µM | 1.8 µM | 1.29 µM | 6.99 µM | 7.64 µM | 0.233 µM | 0.881 µM | 0.1 µM | 0.0324 µM | 3.49 µM | 0.134 µM | 0.145 µM | 0.946 µM | 0.655 µM | 1.11 µM
COc1cc2c(c(OC)c1OC)-c1ccc(NNC(=S)N(Cc3cccc(C[N+](Cc4cccc(CNC56CC7CC(CC(C7)C5)C6)c4)(Cc4cccc(CNC56CC7CC(CC(C7)C5)C6)c4)Cc4cccc(CN(C(=S)NNc5ccc6c(cc5=O)[C@@H](NC(C)=O)CCc5cc(OC)c(OC)c(OC)c5-6)C56CC7CC(CC(C7)C5)C6)c4)c3)C34CC5CC(CC(C5)C3)C4)c(=O)cc1[C@@H](NC(C)=O)CC2 (stereo partly drawn) | 2.26 µM | 10.3 µM | 9.97 µM | 5.28 µM | 5.64 µM | 2.47 µM | 1.88 µM | 6.54 µM | 8.94 µM | 4.52 µM | 0.822 µM | 4.51 µM | 1.96 µM | 1.3 µM | 1.45 µM | 0.699 µM | 1.37 µM | 2.17 µM | 1.08 µM | 0.904 µM
CNc1nc(C)c(-c2nc(Nc3cccc(S(N)(=O)=O)c3)ncc2F)s1 | 1.58 µM | 0.232 µM | 3.54 µM | 3.42 µM | 1.27 µM | > 40.9 µM | 0.137 µM | 1.44 µM | 12.5 µM | 4.43 µM | 0.0305 µM | 0.0657 µM | 0.0219 µM | 0.0248 µM | 0.0388 µM | 0.0449 µM | 0.0287 µM | 0.0524 µM | 0.0368 µM | 0.0358 µM
NC1C2C(CC(=O)O)OCC=C3CN4CCC1(C(=O)C(=O)O)C4CC32 (stereo not drawn) | > 100 µM | > 100 µM | > 100 µM | > 100 µM | > 100 µM | > 100 µM | > 100 µM | > 100 µM | > 100 µM | > 100 µM | – | – | – | – | – | – | – | – | – | –
Nc1c(C(=O)c2cccc(-c3ccc[n+]([O-])c3)c2)cnn1-c1ccc(F)cc1F | > 25 µM | > 25 µM | > 25 µM | > 25 µM | > 25 µM | > 25 µM | > 25 µM | > 25 µM | > 25 µM | > 25 µM | > 25 µM | > 25 µM | > 25 µM | > 25 µM | > 25 µM | > 25 µM | > 25 µM | > 25 µM | > 25 µM | > 25 µM
O=C1c2ccccc2-c2c1c1ccc([N+](=O)[O-])cc1c(=O)n2CCNCCCNCCn1c2c(c3ccc([N+](=O)[O-])cc3c1=O)C(=O)c1ccccc1-2 | 23.5 µM | 25.1 µM | 3.16 µM | 2.92 µM | 9.18 µM | 3.97 µM | 19.5 µM | 12.5 µM | 4.92 µM | 11.3 µM | 0.888 µM | 8.89 µM | 0.125 µM | 0.0515 µM | 0.547 µM | 1.14 µM | 0.0881 µM | 0.215 µM | 0.172 µM | 0.00645 µM
